This note sets out measurements from patent publication US12018016B2, “Aryl sulfonyl (hydroxy) piperidines as CCR6 inhibitors” (CHEMOCENTRYX, INC., priority 2021, dated 2024).

pIC50: −log10 of the molar value.

For the test, the target named is T1, human CCR6 (Homo sapiens, UniProt P51684).
T1 construct: expressed in transfected cells; host or cells: Ba/F3 cells (mouse pro-B line)
T1 sequence (P51684 1-374): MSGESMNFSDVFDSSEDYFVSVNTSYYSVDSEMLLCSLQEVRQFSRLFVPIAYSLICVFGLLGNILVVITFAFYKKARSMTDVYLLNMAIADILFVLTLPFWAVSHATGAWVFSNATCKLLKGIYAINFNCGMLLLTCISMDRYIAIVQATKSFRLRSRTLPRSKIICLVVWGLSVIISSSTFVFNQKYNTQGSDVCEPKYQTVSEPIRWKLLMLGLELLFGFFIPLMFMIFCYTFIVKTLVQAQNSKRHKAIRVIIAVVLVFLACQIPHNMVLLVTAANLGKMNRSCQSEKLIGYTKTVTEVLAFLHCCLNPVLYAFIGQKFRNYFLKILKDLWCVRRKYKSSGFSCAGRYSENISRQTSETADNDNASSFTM
Kind of test: Migration assay (chemotaxis, ChemoTX). It counts as cell-based. The conditions noted are these: hCCR6-transfected Ba/F3 cells in human serum, migration to recombinant human CCL20 10 nM, 37° C. 45 minutes; read-out: Potency (IC50 value in the migration assay). The text has this:
A chemotaxis assay can be used to determine the efficacy of potential receptor antagonists at blocking the migration mediated through chemokine receptors, such as CCR6. This assay is routinely performed using the ChemoTX® microchamber system with a 5-μm pore-sized polycarbonate membrane. Chemokine receptor-expressing cells are required for such an assay. In this case, Ba/F3 cells (Palacios et al., Nature, 309:126, 1984) transfected with the gene for human CCR6 under control of the CMV promotor were used. To begin such an assay, hCCR6-transfected Ba/F3 cells are first grown for 24 hr in medium supplemented with sodium butyrate, which increases CCR6 transcription via the CMV promotor. The prepared Ba/F3 cells, are collected by centrifugation at 400×g at room temperature, then suspended at 4 million/ml in human serum. The compound being tested is serially diluted from a maximum final concentration of 1 μM (or an equivalent volume of its solvent (DMSO)) and is then added to the cell/serum mixture. Separately, recombinant human CCL20 (MIP-3α/LARC) at its EC50 concentration (10 nM) is placed in the lower wells of the ChemoTX® plate. The 5-μm (pore size) polycarbonate membrane is placed onto the plate, and 20 μL of the cell/compound mixture is transferred onto each well of the membrane. The plates are incubated at 37° C. for 45 minutes, after which the polycarbonate membranes are removed and 5 μl of the DNA-intercalating dye CyQUANT (Invitrogen, Carlsbad, CA) is added to the lower wells. The amount of fluorescence, corresponding to the number of migrated cells, is measured using a Spectrafluor Plus plate reader (TECAN, San Jose, CA).
Regarding “4-(4-(((3S,4R)-3-hydroxy-4-((4-(trifluoromethyl)phenyl)amino)piperidin-1-yl)sulfonyl)phenyl)picolinamide [Compound 81]”, the pIC50 was above 9.00.

Take `Cc1nnc(-c2cc(-c3ccc(S(=O)(=O)N4CC[C@@H](Nc5ccc(C(F)(F)F)cn5)[C@@H](O)C4)cc3)ccn2)[nH]1` [Compound 64, (3S,4R)-1-((4-(2-(5-methyl-4H-1,2,4-triazol-3-yl)pyridin-4-yl)phenyl)sulfonyl)-4-((5-(trifluoromethyl)pyridin-2-yl)amino)piperidin-3-ol]: the pIC50 is 8.00 to 9.00.

For the molecule `Cn1ccnc1-c1cc(-c2ccc(S(=O)(=O)N3CC[C@@H](Nc4ccc(C(F)(F)F)cn4)[C@@H](O)C3)cc2)ccn1` [Compound 65, (3S,4R)-1-((4-(2-(1-methyl-1H-imidazol-2-yl)pyridin-4-yl)phenyl)sulfonyl)-4-((5-(trifluoromethyl)pyridin-2-yl)amino)piperidin-3-ol], the pIC50 was 6.00 to 8.00.

With `Cc1noc(-c2cc(-c3ccc(S(=O)(=O)N4CC[C@@H](Nc5ccc(C(F)(F)F)cn5)[C@@H](O)C4)cc3)ccn2)n1` [Compound 66, (3S,4R)-1-((4-(2-(3-methyl-1,2,4-oxadiazol-5-yl)pyridin-4-yl)phenyl)sulfonyl)-4-((5-(trifluoromethyl)pyridin-2-yl)amino)piperidin-3-ol], the pIC50 is 8.00 to 9.00.

`Cc1nc(-c2cc(-c3ccc(S(=O)(=O)N4CC[C@@H](Nc5ccc(C(F)(F)F)cn5)[C@@H](O)C4)cc3)ccn2)no1` [Compound 67, (3S,4R)-1-((4-(2-(5-methyl-1,2,4-oxadiazol-3-yl)pyridin-4-yl)phenyl)sulfonyl)-4-((5-(trifluoromethyl)pyridin-2-yl)amino)piperidin-3-ol]: the pIC50 is above 9.00.

For `O=S(=O)(c1ccc(-c2ccnc(-c3nnco3)c2)cc1)N1CC[C@@H](Nc2ccc(C(F)(F)F)cn2)[C@@H](O)C1` [Compound 68, (3S,4R)-1-((4-(2-(1,3,4-oxadiazol-2-yl)pyridin-4-yl)phenyl)sulfonyl)-4-((5-(trifluoromethyl)pyridin-2-yl)amino)piperidin-3-ol], the pIC50 was above 9.00.

As for `Nc1nnc(-c2cc(-c3ccc(S(=O)(=O)N4CC[C@@H](Nc5ccc(C(F)(F)F)cn5)[C@@H](O)C4)cc3)ccn2)o1` [Compound 69, (3S,4R)-1-((4-(2-(5-amino-1,3,4-oxadiazol-2-yl)pyridin-4-yl)phenyl)sulfonyl)-4-((5-(trifluoromethyl)pyridin-2-yl)amino)piperidin-3-ol], the pIC50 is above 9.00.

Consider `Cc1cnc(-c2cc(-c3ccc(S(=O)(=O)N4CC[C@@H](Nc5ccc(C(F)(F)F)cn5)[C@@H](O)C4)cc3)ccn2)o1` [Compound 70, (3S,4R)-1-((4-(2-(5-methyloxazol-2-yl)pyridin-4-yl)phenyl)sulfonyl)-4-((5-(trifluoromethyl)pyridin-2-yl)amino)piperidin-3-ol], for which the pIC50 was above 9.00.

`Cn1c(-c2ccc(S(=O)(=O)N3CC[C@@H](Nc4ccc(C(F)(F)F)cn4)[C@@H](O)C3)cc2)cnc1C(N)=O` [Compound 71, 5-(4-(((3S,4R)-3-hydroxy-4-((5-(trifluoromethyl)pyridin-2-yl)amino)piperidin-1-yl)sulfonyl)phenyl)-1-methyl-1H-imidazole-2-carboxamide]: the pIC50 was above 9.00.

Consider `Cn1cc(-c2ccc(S(=O)(=O)N3CC[C@@H](Nc4ccc(C(F)(F)F)cn4)[C@@H](O)C3)cc2)nc1C(N)=O` [Compound 72, 4-(4-(((3S,4R)-3-hydroxy-4-((5-(trifluoromethyl)pyridin-2-yl)amino)piperidin-1-yl)sulfonyl)phenyl)-1-methyl-1H-imidazole-2-carboxamide], for which the pIC50 was 8.00 to 9.00.

Turning to `NC(=O)c1cc(-c2ccc(S(=O)(=O)N3CC[C@@H](Nc4ccc(C(F)(F)F)cn4)[C@@H](O)C3)cc2)n[nH]1` [Compound 73, 3-(4-(((3S,4R)-3-hydroxy-4-((5-(trifluoromethyl)pyridin-2-yl)amino)piperidin-1-yl)sulfonyl)phenyl)-1H-pyrazole-5-carboxamide], the pIC50 was 8.00 to 9.00.

Take `O=C(NO)c1cc(-c2ccc(S(=O)(=O)N3CC[C@@H](Nc4ccc(C(F)(F)F)cn4)[C@@H](O)C3)cc2)ccn1` [Compound 74, N-hydroxy-4-(4-(((3S,4R)-3-hydroxy-4-((5-(trifluoromethyl)pyridin-2-yl)amino)piperidin-1-yl)sulfonyl)phenyl)picolinamide]: the pIC50 is 8.00 to 9.00.

For the molecule `Cc1cnc(C#N)c(C)c1-c1ccc(S(=O)(=O)N2CC[C@@H](Nc3ccc(C(F)(F)F)cn3)[C@@H](O)C2)cc1` [Compound 75, 4-(4-(((3S,4R)-3-hydroxy-4-((5-(trifluoromethyl)pyridin-2-yl)amino)piperidin-1-yl)sulfonyl)phenyl)-3,5-dimethylpicolinonitrile], the pIC50 was above 9.00.

In the case of `O=S(=O)(c1ccc(-c2cncc(N3CCNCC3)c2)cc1)N1CC[C@@H](Nc2ccc(C(F)(F)F)cn2)[C@@H](O)C1` [Compound 76, (3S,4R)-1-((4-(5-(piperazin-1-yl)pyridin-3-yl)phenyl)sulfonyl)-4-((5-(trifluoromethyl)pyridin-2-yl)amino)piperidin-3-ol], the pIC50 is 8.00 to 9.00.

On to `N#Cc1n[nH]c2c(F)cc(-c3ccc(S(=O)(=O)N4CC[C@@H](Nc5ccc(C(F)(F)F)cn5)[C@@H](O)C4)cc3)cc12` [Compound 77, 7-fluoro-5-(4-(((3S,4R)-3-hydroxy-4-((5-(trifluoromethyl)pyridin-2-yl)amino)piperidin-1-yl)sulfonyl)phenyl)-1H-indazole-3-carbonitrile], for which the pIC50 was above 9.00.

As for `Cc1cc(-c2ccc(S(=O)(=O)N3CC[C@@H](Nc4ccc(C(F)(F)F)cn4)[C@@H](O)C3)cc2)cc2c1C(=O)NC2` [Compound 78, 5-(4-(((3S,4R)-3-hydroxy-4-((5-(trifluoromethyl)pyridin-2-yl)amino)piperidin-1-yl)sulfonyl)phenyl)-7-methylisoindolin-1-one], the pIC50 was above 9.00.

Take `COc1cc(-c2ccc(S(=O)(=O)N3CC[C@@H](Nc4ccc(C(F)(F)F)cn4)[C@@H](O)C3)cc2)cc2cn[nH]c(=O)c12` [Compound 79, 6-(4-(((3S,4R)-3-hydroxy-4-((5-(trifluoromethyl)pyridin-2-yl)amino)piperidin-1-yl)sulfonyl)phenyl)-8-methoxyphthalazin-1(2H)-one]: the pIC50 is above 9.00.

Regarding `Cc1cc(-c2ccc(S(=O)(=O)N3CC[C@@H](Nc4ccc(C(F)(F)F)cn4)[C@@H](O)C3)cc2)cc2c1CN(C(=O)N(C)C)C2` [Compound 80, 6-(4-(((3S,4R)-3-hydroxy-4-((5-(trifluoromethyl)pyridin-2-yl)amino)piperidin-1-yl)sulfonyl)phenyl)-N,N,4-trimethylisoindoline-2-carboxamide], the pIC50 is above 9.00.

`Cc1cc(C(F)(F)F)cnc1N[C@@H]1CCN(S(=O)(=O)c2ccc(-c3ccnc(C(N)=O)c3)cc2)C[C@@H]1O` [Compound 82, 4-[4-[[(3S,4R)-3-hydroxy-4-[[3-methyl-5-(trifluoromethyl)-2-pyridyl]amino]-1-piperidyl]sulfonyl]phenyl]pyridine-2-carboxamide]: the pIC50 is above 9.00.

As to `Cc1cc(C(F)(F)F)cnc1N[C@@H]1CCN(S(=O)(=O)c2ccc(-c3cnc(C(N)=O)n3C)cc2)C[C@@H]1O` [Compound 83, 5-[4-[[(3S,4R)-3-hydroxy-4-[[3-methyl-5-(trifluoromethyl)-2-pyridyl]amino]-1-piperidyl]sulfonyl]phenyl]-1-methyl-imidazole-2-carboxamide], the pIC50 was above 9.00.

Take `Cc1nnc(-c2cc(-c3ccc(S(=O)(=O)N4CC[C@@H](Nc5ncc(C(F)(F)F)cc5C)[C@@H](O)C4)cc3)ccn2)o1` [Compound 84, (3S,4R)-1-[4-[2-(5-methyl-1,3,4-oxadiazol-2-yl)-4-pyridyl]phenyl]sulfonyl-4-[[3-methyl-5-(trifluoromethyl)-2-pyridyl]amino]piperidin-3-ol]: the pIC50 was above 9.00.

`N#Cc1cc(C(F)(F)F)cnc1N[C@@H]1CCN(S(=O)(=O)c2ccc(-c3ccnc(C(N)=O)c3)cc2)C[C@@H]1O` [Compound 85, 4-(4-(((3S,4R)-4-((3-cyano-5-(trifluoromethyl)pyridin-2-yl)amino)-3-hydroxypiperidin-1-yl)sulfonyl)phenyl)picolinamide]: the pIC50 is 6.00 to 8.00.
